Experimental data from patent US20210085467A1, “SELECTIVE TARGETED RELEASE” (WEST VIRGINIA UNIVERSITY, priority 2018, published 2021).

Key:
free floating bacteria = experiment: Drug levels necessary to treat free floating bacteria; conditions: planktonic bacteria
biofilm infections = experiment: Drug levels necessary to treat biofilm infections

## CN[C@H](CC(C)C)C(=O)N[C@H]1C(=O)N[C@@H](CC(N)=O)C(=O)N[C@H]2C(=O)N[C@H]3C(=O)N[C@H](C(=O)N[C@H](C(=O)O)c4cc(O)cc(O)c4-c4cc3ccc4O)[C@H](O)c3ccc(c(Cl)c3)Oc3cc2cc(c3O[C@@H]2O[C@H](CO)[C@@H](O)[C@H](O)[C@H]2O[C@H]2C[C@](C)(N)[C@H](O)[C@H](C)O2)Oc2ccc(cc2Cl)[C@H]1O [vancomycin]
Free floating bacteria
  drug levels necessary to treat free floating bacteria: 1 to 10 µg/mL
Biofilm infections
  drug levels necessary to treat biofilm infections: 10 to 100 µg/mL
